The numbers were not newly measured in EP3771336A1, “REPELLENT COMPOSITION” (priority 2019, dated 2021), which cites them from elsewhere.

Molecules are shown by their SMILES. Values after ≈ are worked out from the molar mass of the structure shown.

Usually EC50 stands for the concentration that produces a half-maximal response.

One series relates to Daphnia magna. The conditions noted are these: aquatic toxicity, daphnids.
For series [1] the following is noted: at 25°C.

Consider `CCCCCCCCCC(=O)O` [Decanoic acid], for which, in the series on Daphnia magna, the 50% effective concentration (EC50) was 16 µg/mL (≈ 92.9 µM). The vapor pressure in series [1] is reported as 4.88 x 10^-5 kPa.
Consider `CCCCCCCCCCCC(=O)O` [lauric acid, dodecanoic acid], for which the solubility in water entry is “poorly soluble in water”. Besides, the vapor pressure in series [1] is 2.13 x 10^-6 kPa.
For `CCCCCCCCCCCC(=O)OC(C)C` [IPL, propan-2-yl dodecanoate], the solubility in water result is “poor solubility in water”.
As for `CCCCCCCCCCCCCCCC(=O)OC(C)C` [IPP, propan-2-yl hexadecanoate], the solubility in water result is recorded as “immiscible with water”.
